Like-named read-outs stand apart in the source and are kept apart here. Marks after values point to notes of the source that are not given here.
Columns and labels:
[1] = male, Hartley, guinea pig, pH 7.4
[2] = male, Sprague-Dawley, rat, 1 μM, pH 7.4
[3] = male, CD-1, mouse, 1 μM, pH 7.4
in vitro [4] = conditions: male, Gottingen, minipig, s9, pH 7.4, CLint +NADPH
[5] = male, Gottingen, minipig, 1 μM, pH 7.4
in vitro [6] = conditions: male, rhesus monkey
in vitro [7] = conditions: male, cynomolgus monkey
in vitro [8] = conditions: male, Sprague-Dawley, rat, s9, pH 7.4, CLint +NADPH
[9] = male, rhesus monkey, pH 7.4
[10] = i.v., ref Dolan ME, Roy SK, Fasanmade AA, et al. (1998); cited from earlier work
in vitro [11] = conditions: male, Hartley, guinea pig
in vitro [12] = conditions: male, CD-1, mouse, s9, pH 7.4, CLint +NADPH
[13] = male, cynomolgus monkey, pH 7.4
in vitro [14] = conditions: both, human
[15] = type: in vitro ADME
Allometric scaling = test: Allometric scaling; set-up: species or system human; conditions: SSS from minipig
[16] = both, human, pH 7.4

For `Nc1nc(OCc2ccccc2)c2[nH]cnc2n1` [O^6-benzylguanine], the “CLHEP (hepatic clearance)” value ([1]; 1 μM) was 30.3 ± 1.11 mL/min/kg, the “E (estimated hepatic extraction ratio)” value ([1]; 1 μM) was 0.50 and the “Fm,AO Method A (fraction metabolized by AO)” value ([1]; s9, 1 μM) was 0.74. The “Fm,AO Method B (fraction metabolized by AO)” value ([1]; s9, 1 μM) was 0.83, the “CLHEP (hepatic clearance)” value [2] was 7.40 ± 1.61 mL/min/kg and the “E (estimated hepatic extraction ratio)” value [2] was 0.11. The “CLHEP (hepatic clearance)” value [3] was 16.6 ± 4.51 mL/min/kg, the “E (estimated hepatic extraction ratio)” value [3] was 0.18 and the CLint scaled at 1 μM (in vitro [4]) was 4.68 ± 2.2 mL/min/kg. For the same compound, the “CLHEP (hepatic clearance)” value [5] was 3.79 ± 1.04 mL/min/kg, the “E (estimated hepatic extraction ratio)” value [5] was 0.14 and the CLint scaled at 1 μM (in vitro [6]; s9, pH 7.4, CLint +NADPH) was 19.5 ± 2.05 mL/min/kg. The CLint scaled at 1 μM (in vitro [6]; s9, pH 7.4, CLint −NADPH) was 21.3 ± 1.52 mL/min/kg, the CLint scaled at 1 μM (in vitro [7]; s9, pH 7.4, CLint +NADPH) was 35.6 ± 5.1 mL/min/kg and the CLint scaled at 1 μM (in vitro [7]; s9, pH 7.4, CLint −NADPH) was 33.5 ± 3.84 mL/min/kg. The CLint scaled at 1 μM (in vitro [8]) was 6.59 ± 0.664 mL/min/kg, the “CLHEP (hepatic clearance)” value ([9]; 1 μM) was 15.0 ± 1.75 mL/min/kg and the “E (estimated hepatic extraction ratio)” value ([9]; 1 μM) was 0.34. For the same compound, the “Fm,AO Method A (fraction metabolized by AO)” value ([9]; s9, 1 μM) was 1, the “Fm,AO Method B (fraction metabolized by AO)” value ([9]; s9, 1 μM) was 1^# and the “Human Plasma Clearance” value [10] was 14.5^# mL/min/kg. The CLint scaled at 1 μM (in vitro [11]; s9, pH 7.4, CLint +NADPH) was 58.7 ± 4.65 mL/min/kg, the CLint scaled at 1 μM (in vitro [11]; s9, pH 7.4, CLint +NADPH +Hyd) was 15 ± 2.14 mL/min/kg and the CLint scaled at 1 μM (in vitro [11]; s9, pH 7.4, CLint −NADPH) was 48.7 ± 5.15 mL/min/kg. For the same compound, the CLint scaled at 1 μM (in vitro [12]) was 15.5 ± 2.48 mL/min/kg, the “CLHEP (hepatic clearance)” value ([13]; 1 μM) was 21.4 ± 2.28 mL/min/kg and the “E (estimated hepatic extraction ratio)” value ([13]; 1 μM) was 0.49. For the same compound, the “Fm,AO Method A (fraction metabolized by AO)” value ([13]; s9, 1 μM) was 1, the “Fm,AO Method B (fraction metabolized by AO)” value ([13]; s9, 1 μM) was 0.94 and the CLint scaled at 1 μM (in vitro [14]; s9, pH 7.4, CLint +NADPH) was 17.8 ± 3.05 mL/min/kg. The CLint scaled at 1 μM (in vitro [14]; s9, pH 7.4, CLint +NADPH +Hyd) was 5.37 ± 1.16 mL/min/kg, the CLint scaled at 1 μM (in vitro [14]; s9, pH 7.4, CLint −NADPH) was 14.8 ± 1.98 mL/min/kg and the “Fm,AO, across species” value ([15]; all species except rat, mouse, and minipig) was at least 0.70. The “E (estimated hepatic extraction ratio), across species” value ([15]; human, cynomolgus, and guinea pig hepatic S9) was “approximately 0.5”, the “E (estimated hepatic extraction ratio), across species” value ([15]; rat, mouse, minipig hepatic S9) was “approximately 0.1” and the “fold-error of human S9 CLint predicted by SSS” value (Allometric scaling) was “outside of 3-fold-error”. For the same compound, the “CLHEP (hepatic clearance)” value ([16]; 1 μM) was 9.62 ± 0.593 mL/min/kg, the “E (estimated hepatic extraction ratio)” value ([16]; 1 μM) was 0.46 and the “Fm,AO Method A (fraction metabolized by AO)” value ([16]; s9, 1 μM) was 0.70. The “Fm,AO Method B (fraction metabolized by AO)” value ([16]; s9, 1 μM) was 0.83.

Source: paper PMC6207370 (Xenobiotica; the fate of foreign compounds in biological …, 2017)
